Reference: ChEMBL document CHEMBL5725614, “Histone demethylase inhibitors” (2018)

Test: PHF8 Assay: The ability of test compounds to inhibit the activity of PHF8 was determined in 384-well plate format under the following reaction conditions: 3 nM PHF8, 200 nM H3K9me1-biotin labeled peptide (Anaspec cat #64358), 0.5 μM alpha-ketoglutaric acid in assay buffer of 50 mM HEPES, pH7.3, 0.005% Brij35, 0.5 mM TCEP, 0.2 mg/ml BSA, 50 μM sodium L-ascorbate, and 5 μM ammonium iron(II) sulfate. Reaction product was determined quantitatively by TR-FRET after the addition of detection reagent Phycolink Streptavidin-allophycocyanin (Prozyme) and Europium-anti-unmodified-histone H3 lysine 9/lysine27 (H3K9/K27) antibody (PerkinElmer) in the presence of 5 mM EDTA in LANCE detection buffer (PerkinElmer) at a final concentration of 25 nM and 0.5 nM, respectively.The assay reaction was initiated by the following: 2 μl of the mixture of 600 nM H3K9me1-biotin labeled peptide and 1.5 μM alpha-ketoglutaric acid with 2 μl of 11-point serial diluted inhibitor in 3% DMSO were added to each well of the plate, followed by the addition of 2 μl of 9 nM PHF8 to initiate the reaction. The reaction mixture was incubated at room temperature for 15 minutes, and terminated by the addition of 6 μl of 5 mM EDTA in LANCE detection buffer containing 50 nM Phycolink Streptavidin-allophycocyanin and 1 nM Europium-anti-unmodified H3K9/K27 antibody. Plates were read by EnVision Multilabel Reader in TR-FRET mode (excitation at 320 nm, emission at 615 nm and 665 nm) after 1 hour incubation at room temperature. A ratio was calculated (665/615) for each well and fitted to determine inhibition constant (IC50).

Compound	IC50
Clc1cc(Cl)cc(-n2cnc(-c3cc4[nH]nnc4cn3)c2)c1	in the range around 5500 nM
COc1cc(-c2c(-c3cc(-c4c[nH]nn4)ccn3)ncn2C)ccc1F	in the range around 550 nM
FC(F)(F)c1cccc(Cn2cnc(-c3cc(-c4c[nH]nn4)ccn3)c2)c1Cl	in the range around 550 nM
Fc1[nH]nnc1-c1ccnc(-c2cn(CCc3cccc4ccccc34)cn2)c1	in the range around 550 nM
Clc1cccc(Cn2cnc(-c3cc(-c4c[nH]nn4)ccn3)c2)c1Cl	in the range around 550 nM
Cn1cnc(-c2cc(-c3c[nH]nn3)ccn2)c1-c1ccc(F)cc1OCC1CC1	in the range around 5500 nM
Clc1ccccc1Cn1cnc(-c2cc(-c3cn[nH]n3)ccn2)c1Br	in the range around 550 nM
Cn1cnc(-c2cc(-c3c[nH]nn3)ccn2)c1-c1ccc(F)cc1	in the range around 550 nM
N#Cc1[nH]nnc1-c1ccnc(-c2cn(Cc3ccccc3Cl)cn2)c1	in the range around 5500 nM
CCOc1cc(-c2c(-c3cc(-c4c[nH]nn4)ccn3)ncn2C)ccc1F	in the range around 5500 nM
CC(Cc1ccccc1)n1cnc(-c2cc(-c3c[nH]nn3)ccn2)c1 (stereo not drawn)	in the range around 5500 nM
Clc1cccc(Cn2cnc(-c3cc(-c4nn[nH]c4I)ccn3)c2)c1Cl	in the range around 550 nM
CC(c1ccccc1)n1cnc(-c2cc(-c3c[nH]nn3)ccn2)c1 (stereo not drawn)	in the range around 550 nM
Clc1cccc(-n2cnc(-c3cc4[nH]nnc4cn3)c2)c1	in the range around 5500 nM
N#Cc1[nH]nnc1-c1ccnc(-c2cn(CC3CCCc4ccccc43)cn2)c1 (stereo not drawn)	in the range around 550 nM
c1ccc2c(c1)CCCC2Cn1cnc(-c2cc(-c3c[nH]nn3)ccn2)c1 (stereo not drawn)	in the range around 550 nM
CCOc1ccccc1CCn1cnc(-c2cc(-c3c[nH]nn3)ccn2)c1	in the range around 550 nM
c1nc(-c2cn(CC3CC3)cn2)cc2[nH]nnc12	in the range around 5500 nM
N#Cc1[nH]nnc1-c1ccnc(-c2cn(Cc3cccc(Cl)c3Cl)cn2)c1	in the range around 5500 nM
Clc1ccccc1Cn1cnc(-c2cc(-c3c[nH]nn3)ccn2)c1	in the range around 550 nM
FC(F)(F)c1ccccc1CCn1cnc(-c2cc(-c3c[nH]nn3)ccn2)c1	in the range around 550 nM
COc1ccccc1CCn1cnc(-c2cc(-c3c[nH]nn3)ccn2)c1	in the range around 550 nM
Clc1ccc(Cn2cnc(-c3cc4[nH]nnc4cn3)c2)cc1	in the range around 5500 nM

Compound	IC50
Clc1ccccc1-n1cnc(-c2cc3[nH]nnc3cn2)c1	in the range around 5500 nM
FC(F)(F)COc1ccccc1CCn1cnc(-c2cc(-c3c[nH]nn3)ccn2)c1	in the range around 550 nM
Clc1ccccc1Cn1cnc(-c2cc3[nH]nnc3cn2)c1	in the range around 5500 nM
c1ccc(OCC2CC2)c(CCn2cnc(-c3cc(-c4c[nH]nn4)ccn3)c2)c1	in the range around 550 nM
Clc1ccc(Cn2cnc(-c3cc4[nH]nnc4cn3)c2)cc1Cl	in the range around 5500 nM
c1ccc(Oc2ccccc2CCn2cnc(-c3cc(-c4c[nH]nn4)ccn3)c2)cc1	in the range around 5500 nM
c1ccc2c(CCn3cnc(-c4cc(-c5c[nH]nn5)ccn4)c3)cccc2c1	in the range around 550 nM
c1ccc(Cn2cnc(-c3cc4[nH]nnc4cn3)c2)cc1	in the range around 550 nM
COc1cccc(Cn2cnc(-c3cc(-c4c[nH]nn4)ccn3)c2)c1F	in the range around 550 nM
Cn1cnc(-c2cc3[nH]nnc3cn2)c1-c1ccc(F)cc1	in the range around 5500 nM
Fc1c(Cn2cnc(-c3cc(-c4c[nH]nn4)ccn3)c2)cccc1OC(F)(F)F	in the range around 5500 nM
N#Cc1[nH]nnc1-c1ccnc(-c2cn(CCc3cccc4ccccc34)cn2)c1	in the range around 550 nM
Clc1cccc(Cn2cnc(-c3cc4[nH]nnc4cn3)c2)c1	in the range around 5500 nM
c1ccc(-c2ccccc2CCn2cnc(-c3cc(-c4c[nH]nn4)ccn3)c2)cc1	in the range around 5500 nM
Cn1cnc(-c2cc(-c3nn[nH]c3F)ccn2)c1-c1ccc(F)cc1OCC1CC1	in the range around 5500 nM
Cc1cccc(Cn2cnc(-c3cc(-c4c[nH]nn4)ccn3)c2)c1F	in the range around 550 nM
Fc1[nH]nnc1-c1ccnc(-c2cn(Cc3cccc(Cl)c3Cl)cn2)c1	in the range around 550 nM
Clc1[nH]nnc1-c1ccnc(-c2cn(CCc3cccc4ccccc34)cn2)c1	in the range around 5500 nM
c1ccc(COc2ccccc2CCn2cnc(-c3cc(-c4c[nH]nn4)ccn3)c2)cc1	in the range around 5500 nM
Clc1ccc(-n2cnc(-c3cc4[nH]nnc4cn3)c2)cc1	in the range around 5500 nM
FC(F)(F)Oc1ccccc1CCn1cnc(-c2cc(-c3c[nH]nn3)ccn2)c1	in the range around 550 nM
CC(C)(Cn1cnc(-c2cc(-c3c[nH]nn3)ccn2)c1)c1ccccc1Cl	in the range around 550 nM

Test: FBXL11 Assay: The ability of test compounds to inhibit the activity of FBXL11 was determined in 384-well plate format under the following reaction conditions: 0.15 nM FBXL11, 30 nM H3K36me2-biotin labeled peptide (Anaspec cat #64442), 0.2 μM alpha-ketoglutaric acid in assay buffer of 50 mM HEPES, pH7.3, 0.005% Brij35, 0.5 mM TCEP, 0.2 mg/ml BSA, 50 μM sodium L-ascorbate, 5 μM ammonium iron(II) sulfate. Reaction product is determined quantitatively by AlphaScreen detection after the addition of detection reagents anti-H3K36me1 antibody, AlphaScreen® Streptavidin-coated Donor beads, and AlphaScreen® Protein A Acceptor beads in 50 mM HEPES, pH7.3, 10 mM NaCl, 0.005% Brij35, 5 mM EDTA, 2 mg/ml BSA to final 10 μg/ml beads.The assay reaction was initiated by the following: 3 μl of the mixture of 90 nM H3K36me2-biotin labeled peptide and 0.6 μM alpha-ketoglutaric acid with 3 μl of 11-point serial diluted inhibitor in 3% DMSO are added to each well of 384 well Proxiplate (Perkin Elmer), followed by the addition of 3 μl of 0.45 nM FBXL11 to initiate the reaction. The reaction mixture is incubated at room temperature for 1 hour, and terminated by the addition of 3 μl of appropriate dilution of anti H3K36me1 antibody in 50 mM HEPES, pH7.3, 10 mM NaCl, 0.005% Brij35, 5 mM EDTA, 2 mg/ml BSA. Plates will then incubated at room temperature for 40 minutes, followed by addition of 3 ul of 50 μg/ml AlphaScreen® Streptavidin-coated Donor beads and AlphaScreen® Protein A Acceptor beads in 50 mM HEPES, pH7.3, 10 mM NaCl, 0.005% Brij35, 5 mM EDTA, 2 mg/ml BSA. Plates will then be read by EnVision Multilabel Reader in AlphaScreen mode after minimum 2 hour incubation at room temperature. The AlphaScreen signal for each well is used to determine inhibition constant (IC50).

Compound	IC50
CCOc1cc(-c2c(-c3cc(-c4c[nH]nn4)ccn3)ncn2C)ccc1F	in the range around 550 nM
Clc1cccc(-n2cnc(-c3cc4[nH]nnc4cn3)c2)c1	in the range around 550 nM
Clc1ccccc1Cn1cnc(-c2cc(-c3c[nH]nn3)ccn2)c1	in the range around 550 nM
